Test results as given in patent publication US20210255193A1, “LYSINE REACTIVE PROBES AND USES THEREOF” (The Scripps Research Institute, priority 2017, published 2021).
Values belong to the molecule of their own block, whether it stands above or below them.

Experiments:
Test in all cases: competitive isoTOP-ABPP
Type in all cases: binding
[1] = biological target: T1, TSTA3 GDP-L-fucose synthase (Homo sapiens, UniProt Q13630); conditions: 50 uM, in vitro
T1 construct: isoTOP-ABPP experiments performed in cell lysates (in vitro); endogenous in cells; host or cells: soluble proteome of human cancer cell lines (MDA-MB-231, Ramos, Jurkat)
T1 sequence (Q13630 whole entry): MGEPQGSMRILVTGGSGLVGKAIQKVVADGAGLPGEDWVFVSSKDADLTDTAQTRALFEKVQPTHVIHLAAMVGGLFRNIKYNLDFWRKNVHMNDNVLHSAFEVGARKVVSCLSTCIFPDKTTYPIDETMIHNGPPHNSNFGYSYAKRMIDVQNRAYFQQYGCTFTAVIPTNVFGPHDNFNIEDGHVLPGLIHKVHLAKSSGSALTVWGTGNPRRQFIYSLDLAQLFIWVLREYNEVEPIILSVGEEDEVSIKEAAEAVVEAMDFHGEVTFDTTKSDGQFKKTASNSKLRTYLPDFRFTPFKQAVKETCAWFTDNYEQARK
How it was run: (§1)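 Lysine engagement is reported as R, the MS1 peak-area ratio of heavy-tagged DMSO to light-tagged compound samples. Final fragment concentrations were 50 μM for activated esters and 100 μM for guanidinylating agents; STP-alkyne probe 0.1 mM, 1 h.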

[2] = biological target: T2, AKR1C3 Aldo-keto reductase family 1 member C3 (Homo sapiens, UniProt P42330); conditions: for isoTOP-ABPP reactivity ratio at lysine P42330_K270 / isoTOP-ABPP ratio (R) at liganded lysine P42330_K270: 50 uM, in vitro; for isoTOP-ABPP reactivity ratio at lysine P42330_K270: 231 sol; for isoTOP-ABPP ratio, lysine P42330_K270: possible other lysine P52895_K270, P17516_K270, Q04828_K270; for isoTOP-ABPP ratio (R) at liganded lysine P42330_K270: sol, 231
T2 construct: isoTOP-ABPP experiments performed in cell lysates (in vitro); endogenous in cells; host or cells: soluble proteome of human cancer cell lines (MDA-MB-231; Ramos and Jurkat also prepared)
T2 sequence (P42330 1-323): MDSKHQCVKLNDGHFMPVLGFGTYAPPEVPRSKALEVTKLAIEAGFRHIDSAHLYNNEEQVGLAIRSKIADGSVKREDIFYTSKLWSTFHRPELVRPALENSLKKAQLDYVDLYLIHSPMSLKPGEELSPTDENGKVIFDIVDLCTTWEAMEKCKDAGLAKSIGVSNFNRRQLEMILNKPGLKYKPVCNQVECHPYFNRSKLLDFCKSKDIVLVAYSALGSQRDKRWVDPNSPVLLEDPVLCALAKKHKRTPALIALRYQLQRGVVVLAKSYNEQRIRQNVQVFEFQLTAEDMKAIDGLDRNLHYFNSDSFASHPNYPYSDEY
How it was run: as §1

[3] = biological target: T3, ERO1L ERO1-like protein alpha (Homo sapiens, UniProt Q96HE7)
T3 construct: isoTOP-ABPP experiments performed in cell lysates (in vitro); endogenous in cells; host or cells: soluble proteome of human cancer cell lines (MDA-MB-231; Ramos and Jurkat also prepared)
T3 sequence (Q96HE7 24-468): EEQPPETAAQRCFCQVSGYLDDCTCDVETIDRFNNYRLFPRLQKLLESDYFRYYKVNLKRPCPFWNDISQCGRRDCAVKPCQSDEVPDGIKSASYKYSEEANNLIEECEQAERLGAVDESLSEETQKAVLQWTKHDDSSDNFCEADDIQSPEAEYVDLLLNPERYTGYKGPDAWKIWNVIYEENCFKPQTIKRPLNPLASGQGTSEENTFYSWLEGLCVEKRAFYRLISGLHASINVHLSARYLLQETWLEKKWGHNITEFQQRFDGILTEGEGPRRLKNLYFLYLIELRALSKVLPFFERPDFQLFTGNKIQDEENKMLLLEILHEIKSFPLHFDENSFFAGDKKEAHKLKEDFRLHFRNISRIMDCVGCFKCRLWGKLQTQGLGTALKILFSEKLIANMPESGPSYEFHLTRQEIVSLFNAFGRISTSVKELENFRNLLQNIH
How it was run: as §1

[4] = biological target: T4, NUDT22 Nucleoside diphosphate-linked moiety X motif 22 (Homo sapiens, UniProt Q9BRQ3)
T4 construct: isoTOP-ABPP experiments performed in cell lysates (in vitro); endogenous in cells; host or cells: soluble proteome of human cancer cell lines (MDA-MB-231; Ramos and Jurkat also prepared)
T4 sequence (Q9BRQ3 1-303): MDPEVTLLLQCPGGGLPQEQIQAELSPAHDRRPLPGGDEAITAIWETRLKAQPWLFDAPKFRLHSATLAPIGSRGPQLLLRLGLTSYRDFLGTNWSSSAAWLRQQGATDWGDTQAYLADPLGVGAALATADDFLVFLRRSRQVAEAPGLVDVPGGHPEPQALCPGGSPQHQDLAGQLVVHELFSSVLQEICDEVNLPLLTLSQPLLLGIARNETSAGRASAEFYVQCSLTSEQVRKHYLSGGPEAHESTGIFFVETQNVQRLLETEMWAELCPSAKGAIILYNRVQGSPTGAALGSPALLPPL
How it was run: as §1

[5] = biological target: T5, ARL6IP1 ADP-ribosylation factor-like protein 6-interacting (Homo sapiens, UniProt Q15041); conditions: for isoTOP-ABPP ratio, lysine Q15041_K188: 50 uM_231_sol_in vitro
T5 construct: isoTOP-ABPP experiments performed in cell lysates (in vitro); endogenous in cells; host or cells: soluble proteome of human cancer cell lines (MDA-MB-231; Ramos and Jurkat also prepared)
T5 sequence (Q15041 whole entry): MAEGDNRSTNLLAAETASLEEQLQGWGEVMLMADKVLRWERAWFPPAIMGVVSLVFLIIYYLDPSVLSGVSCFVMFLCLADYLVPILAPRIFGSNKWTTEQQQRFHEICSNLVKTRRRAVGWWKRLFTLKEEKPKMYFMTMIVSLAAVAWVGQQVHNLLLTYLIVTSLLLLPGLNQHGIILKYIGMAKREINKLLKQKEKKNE
How it was run: as §1

SMILES: O=C(CCc1cn(-c2ccccc2)nc1-c1ccccc1)Oc1ccc([N+](=O)[O-])cc1[N+](=O)[O-] [fragment 29, 2,4-Dinitrophenyl 3-(1,3-diphenyl-1H-pyrazol-4-yl)propanoate]
isoTOP-ABPP reactivity ratio at lysine Q13630_K108 ([1]; 231 sol): 1.1
isoTOP-ABPP reactivity ratio at lysine P42330_K270 [2]: 2.1
isoTOP-ABPP reactivity ratio at lysine Q96HE7_K413 ([3]; 50 uM, 231 sol, in vitro): 20.0
isoTOP-ABPP reactivity ratio at lysine Q9BRQ3_K60 ([4]; 50 uM, 231 sol, in vitro): 0.8

isoTOP-ABPP reactivity ratio at lysine Q13630_K108 ([1]; 231 sol): 0.6
isoTOP-ABPP reactivity ratio at lysine P42330_K270 [2]: 4.2
isoTOP-ABPP reactivity ratio at lysine Q15041_K188 ([5]; 50 uM, 231 sol, in vitro): 2.4
SMILES: O=C(Oc1c(F)c(F)c(F)c(F)c1F)C1CCN(C(=O)OCc2ccccc2)CC1 [fragment 24, 1-Benzyl 4-(pentafluorophenyl) piperidine-1,4-dicarboxylate]

isoTOP-ABPP ratio, lysine P42330_K270 ([2]; 50 uM_231_sol_in vitro): 0.8
SMILES: NC(=O)c1cc(C(F)(F)F)cc(C(F)(F)F)c1 [fragment 51, reference compound]

SMILES: N#Cc1ccc(C(=O)Oc2ccc([N+](=O)[O-])cc2[N+](=O)[O-])cc1 [fragment 44, 2,4-Dinitrophenyl 4-cyanobenzoate]
isoTOP-ABPP ratio, lysine P42330_K270 ([2]; 50 uM_231_sol_in vitro): 0.5
isoTOP-ABPP ratio, lysine Q96HE7_K413 ([3]; 50 uM_231_sol_in vitro, possible other lysine Q86YB8_K412): 1.9
isoTOP-ABPP ratio, lysine Q15041_K188 [5]: 1.1

isoTOP-ABPP reactivity ratio at lysine Q13630_K108 ([1]; 231 sol): 1.4
isoTOP-ABPP reactivity ratio at lysine Q9BRQ3_K60 ([4]; 50 uM, 231 sol, in vitro): 0.8
SMILES: O=C(CCc1coc2cc(F)ccc2c1=O)Oc1c(F)c(F)c(F)c(F)c1F [fragment 26, Pentafluorophenyl 3-(7-fluoro-4-oxo-4H-chromen-3-yl)propanoate]

SMILES: O=C(Oc1ccc([N+](=O)[O-])cc1[N+](=O)[O-])C1CCN(C(=O)OCc2ccccc2)CC1 [fragment 34, 1-Benzyl 4-(2,4-dinitrophenyl) piperidine-1,4-dicarboxylate]
isoTOP-ABPP ratio (R) at liganded lysine P42330_K270 [2]: 1.1

SMILES: O=C(CC12CC3CC(CC(C3)C1)C2)Oc1ccc([N+](=O)[O-])cc1[N+](=O)[O-] [fragment 38, 2,4-Dinitrophenyl 2-(adamantan-1-yl)acetate]
isoTOP-ABPP ratio (R) at liganded lysine Q13630_K108 ([1]; sol, 231): 0.9
isoTOP-ABPP ratio (R) at liganded lysine P42330_K270 [2]: 0.9

SMILES: O=C(CCc1coc2cc(F)ccc2c1=O)Oc1ccc([N+](=O)[O-])cc1[N+](=O)[O-] [fragment 36, 2,4-Dinitrophenyl 3-(7-fluoro-4-oxo-4H-chromen-3-yl)propanoate]
isoTOP-ABPP ratio (R) at liganded lysine P42330_K270 [2]: 0.6
isoTOP-ABPP ratio (R) at liganded lysine Q15041_K188 ([5]; 50 uM, in vitro, sol, 231): 1.6

isoTOP-ABPP ratio, lysine P42330_K270 ([2]; 50 uM_231_sol_in vitro): 2.5
isoTOP-ABPP ratio, lysine Q15041_K188 [5]: 3.5
isoTOP-ABPP ratio, lysine Q9BRQ3_K60 ([4]; 50 uM_231_sol_in vitro): 1.1
SMILES: O=C(Oc1c(F)c(F)c(C(F)(F)F)c(F)c1F)c1cc(C(F)(F)F)cc(C(F)(F)F)c1 [fragment 47, 2,3,5,6-Tetrafluoro-4-(trifluoromethyl)phenyl 3,5-bis(trifluoromethyl)benzoate]

isoTOP-ABPP ratio, lysine P42330_K270 ([2]; 100 uM_231_sol_in vitro): 0.8
SMILES: COC(=O)NC(=NC(=O)OCC1c2ccccc2-c2ccccc21)n1cccn1 [fragment 49, N-Methoxycarbonyl-N′-9-fluorenylmethoxycarbonyl-pyrazole-1-carboxamidine]

isoTOP-ABPP reactivity ratio at lysine Q13630_K108 ([1]; 231 sol): 1.0
isoTOP-ABPP reactivity ratio at lysine P42330_K270 [2]: 1.8
isoTOP-ABPP reactivity ratio at lysine Q96HE7_K413 ([3]; 50 uM, 231 sol, in vitro): 1.4
isoTOP-ABPP reactivity ratio at lysine Q9BRQ3_K60 ([4]; 50 uM, 231 sol, in vitro): 1.0
SMILES: CCn1cc(C(=O)Oc2c(F)c(F)c(F)c(F)c2F)c(=O)c2ccc(C)nc21 [fragment 28, Pentafluorophenyl 1-ethyl-7-methyl-4-oxo-1,4-dihydro-1,8-naphthyridine-3-carboxylate]

R value (DMSO/fragment) for probe 1 labeling ([1]; Q13630_K108, 231 sol): 0.8
R value (DMSO/fragment) for probe 1 labeling ([3]; Q96HE7_K413, 50 uM, 231 sol, in vitro): 0.5
R value (DMSO/fragment) for probe 1 labeling ([4]; Q9BRQ3_K60, 50 uM, 231 sol, in vitro): 0.9
SMILES: O=C(CCc1cn(-c2ccccc2)nc1-c1ccccc1)Oc1c(F)c(F)c(F)c(F)c1F [fragment 19, Pentafluorophenyl 3-(1,3-diphenyl-1H-pyrazol-4-yl)propanoate]

isoTOP-ABPP ratio, lysine Q15041_K188 [5]: 3.5
SMILES: O=C(Oc1c(F)c(F)cc(F)c1F)c1cc(C(F)(F)F)cc(C(F)(F)F)c1 [fragment 48, 2,3,5,6-Tetrafluorophenyl 3,5-bis(trifluoromethyl)benzoate]
